Reference: ChEMBL document CHEMBL1129106, “The development of non-steroidal dual inhibitors of both human 5-reductase isozymes” (Bioorg Med Chem Lett, 1996)

Experiments:
[1] = target: T1, 3-oxo-5-alpha-steroid 4-dehydrogenase 2 (Homo sapiens) (UniProt P31213); experiment: Compound was tested in vitro for its inhibitory activity against human 5Alpha-R2 expressed as potency.
T1 sequence (whole entry): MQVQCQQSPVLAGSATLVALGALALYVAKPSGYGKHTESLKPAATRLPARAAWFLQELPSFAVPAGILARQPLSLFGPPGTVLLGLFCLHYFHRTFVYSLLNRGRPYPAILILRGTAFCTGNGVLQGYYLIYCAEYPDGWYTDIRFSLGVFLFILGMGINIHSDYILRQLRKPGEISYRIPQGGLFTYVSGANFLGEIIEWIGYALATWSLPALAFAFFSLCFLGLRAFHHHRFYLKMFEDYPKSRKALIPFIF

[2] = target: Steroid 5-alpha-reductase (Rattus norvegicus) (UniProt P24008+P31214); experiment: Compound was tested in vitro for its inhibitory activity against rat 5Alpha-R expressed as potency; assay type: protein assay
[3] = target: T2, 3-oxo-5-alpha-steroid 4-dehydrogenase 1 (Homo sapiens) (UniProt P18405); experiment: Compound was tested in vitro for its inhibitory activity against human 5Alpha-R1 expressed as potency.
T2 sequence (whole entry): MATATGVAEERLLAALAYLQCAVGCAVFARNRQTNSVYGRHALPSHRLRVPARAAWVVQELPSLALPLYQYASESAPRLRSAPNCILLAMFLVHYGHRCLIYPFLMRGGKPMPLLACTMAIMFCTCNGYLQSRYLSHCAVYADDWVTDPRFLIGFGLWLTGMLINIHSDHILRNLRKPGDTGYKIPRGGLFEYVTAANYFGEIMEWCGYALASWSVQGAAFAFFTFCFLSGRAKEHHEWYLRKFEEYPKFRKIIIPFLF

[4] = Half-life in rat plasma; assay type: ADME, organism-based
[5] = Volume of distribution in dog; assay type: ADME, organism-based, Canis lupus familiaris; conditions: in vivo
[6] = Volume of distribution in rat.; assay type: ADME, organism-based; conditions: in vivo
[7] = Plasma clearance in dog; assay type: ADME, organism-based, Canis lupus familiaris
[8] = Plasma clearance in rat.; assay type: ADME, organism-based
[9] = Oral bioavailability in rat; assay type: ADME, organism-based; conditions: in vivo
[10] = Oral bioavailability in dog; assay type: ADME, organism-based, Canis lupus familiaris; conditions: in vivo

Steroid 5-alpha-reductase (Rattus norvegicus), sequence (P24008 whole entry, looked up): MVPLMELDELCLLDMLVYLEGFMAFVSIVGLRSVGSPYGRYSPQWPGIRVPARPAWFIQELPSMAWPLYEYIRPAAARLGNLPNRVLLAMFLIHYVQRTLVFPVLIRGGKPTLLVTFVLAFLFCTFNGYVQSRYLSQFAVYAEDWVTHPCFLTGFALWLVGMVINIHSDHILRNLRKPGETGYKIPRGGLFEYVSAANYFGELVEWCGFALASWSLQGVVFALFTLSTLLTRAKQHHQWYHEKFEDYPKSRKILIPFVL
Steroid 5-alpha-reductase (Rattus norvegicus), sequence (P31214 whole entry, looked up): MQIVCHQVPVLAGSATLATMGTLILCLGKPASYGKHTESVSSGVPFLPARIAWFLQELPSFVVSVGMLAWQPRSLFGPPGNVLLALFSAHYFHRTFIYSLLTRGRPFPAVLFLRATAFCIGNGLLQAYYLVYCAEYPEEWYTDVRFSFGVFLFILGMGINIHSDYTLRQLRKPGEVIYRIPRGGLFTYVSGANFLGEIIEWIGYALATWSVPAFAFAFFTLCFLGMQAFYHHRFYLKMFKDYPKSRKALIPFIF

Structure (SMILES) | Potency [1] | Potency [2] | Potency [3] | half-life [4] | Vd [5] | Vd [6] | clearance [7] | clearance [8] | bioavailability [9] | bioavailability [10]
CC(C)Cc1ccc([C@]2(C)Oc3ccc(C(=O)c4cn(CCCC(=O)O)c5ccccc45)cc3O2)cc1 | 0.023 µM | 0.009 µM | 0.025 µM | – | – | – | – | – | – | –
CC(C)Cc1ccc([C@@H](C)Oc2ccc(C(=O)c3cn(CCCC(=O)O)c4ccccc34)cc2)cc1 | 0.069 µM | 0.03 µM | 0.574 µM | – | – | – | – | – | – | –
Cc1c(O[C@@H](C)c2ccc(CC(C)C)cc2)ccc(C(=O)Nc2ccccc2OCCCC(=O)O)c1C | 0.256 µM | – | – | – | – | – | – | – | – | –
O=C(O)CCCn1cc(C(=O)c2ccc3c(c2)OC(c2ccccc2)(c2ccccc2)O3)c2ccccc21 | 0.034 µM | 0.003 µM | 0.023 µM | – | – | – | – | – | – | –
CCCc1ccc(OC(C)c2ccc(C(=O)c3cn(CCCC(=O)O)c4ccccc34)cc2)cc1 (stereo unspecified) | 0.01 µM | 0.005 µM | 0.008 µM | – | – | – | – | – | – | –
CC(C)Cc1ccc(C(C)Oc2ccc(C(=O)N3CC(CCCC(=O)O)c4ccccc43)cc2)cc1 (stereo unspecified) | 0.481 µM | 0.024 µM | 0.113 µM | – | – | – | – | – | – | –
CC(C)Cc1ccc([C@H](C)Oc2ccc(C(=O)c3cn(CCCC(=O)O)c4ccccc34)cc2)cc1 | 0.004 µM | 0.001 µM | 0.04 µM | 3.7 h | 0.9 L/kg | 3.6 L/kg | 2.4 mL/min/kg | 11 mL/min/kg | 56% | 86%
